Experimental data reported in patent US12281098B2, “Five-membered-fused six-membered compound, preparation method, pharmaceutical composition and use” (HANGZHOU POLYMED BIOPHARMACEUTICALS, INC., priority 2021, dated 2025).
Like-named read-outs stand apart in the source and are kept apart here.

How the values were obtained:
IRAK4 kinase = biological target: T1, IRAK4 kinase (Homo sapiens, UniProt Q9NWZ3); assay: Compound inhibition of IRAK4 kinase activity (fluorescence microfluidic mobility shift assay); assay type: biochemical; details: 10 μM ATP, 6 nM IRAK4 kinase
T1 construct: purchased Carna 09-145
T1 sequence (Q9NWZ3 1-460): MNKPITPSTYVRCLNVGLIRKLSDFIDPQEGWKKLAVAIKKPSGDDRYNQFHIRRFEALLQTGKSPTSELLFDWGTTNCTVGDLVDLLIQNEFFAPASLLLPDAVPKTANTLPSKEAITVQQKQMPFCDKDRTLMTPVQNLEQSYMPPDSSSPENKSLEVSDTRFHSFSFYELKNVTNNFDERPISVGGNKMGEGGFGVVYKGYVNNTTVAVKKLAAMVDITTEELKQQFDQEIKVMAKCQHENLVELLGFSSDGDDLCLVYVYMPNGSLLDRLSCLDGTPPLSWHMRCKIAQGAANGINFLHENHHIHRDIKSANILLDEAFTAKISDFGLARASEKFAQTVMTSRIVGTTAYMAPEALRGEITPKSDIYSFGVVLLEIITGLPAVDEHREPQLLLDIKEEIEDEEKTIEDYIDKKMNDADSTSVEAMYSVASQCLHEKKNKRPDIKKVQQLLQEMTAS
Method: Based on the experimental method of fluorescence microfluidic mobility shift assay, the IC50 value of the compound for competitive binding of ATP to IRAK4 kinase was determined. The initial detection concentration of the compound was 10 μM, which was 4-fold serially diluted to 0.38 nM and assayed in duplicate. In this case, commercially available staurosporine was the standard control for the assay.
1) IRAK4 kinase was dissolved in kinase buffer (50 mM HEPES pH 7.5, 10 mM MgCl2, 2 mM DDT, and 0.01% Brij-35) at a final concentration of 6 nM.
2) The substrate peptide FAM-P8 and ATP were dissolved in the above kinase buffer, and the final concentrations of the substrate peptide FAM-P8 and ATP for IRAK4 were 3 μM and 10 μM, respectively.
3) Compound dilution: The compound was first diluted to 50 μM, and then 4-fold serially diluted with DMSO. In this case, the solution without compound and kinase served as the blank control, corresponding to the “minimum value” shown below; the solution without compound but containing kinase, adenosine 5′-triphosphate disodium salt hydrate, DMSO, and the buffer served as the positive control, corresponding to the “maximum value” shown below.
4) Kinase reaction and termination: 10 μL of the kinase buffer was added to a 384-well plate containing 5 μL of the compound to be tested, and the mixture was incubated at room temperature for 10 minutes; another 10 μL of buffer containing the substrate peptide and adenosine 5′-triphosphate disodium salt hydrate was added to the 384-well plate, and after incubation at 28° C. for 1 hour, 25 μL of termination solution (100 mM HEPES pH 7.5, 50 mM EDTA, 0.2% Coating Reagent #3, and 0.015% Brij-35) was added to each well to terminate the reaction.
5) Data reading: CaliperEZ Reader II instrument was used to read the conversion rate data. Setting conditions: downstream voltage as −500 V, upstream voltage as −2250 V, base pressure as −0.5 PSI, and screening pressure as −1.2 PSI.
6) Data calculation: the conversion rate data was copied from CaliperEZ Reader II, and the conversion rate was converted into inhibition rate data. The calculation formula is as follows: Inhibition percentage (%)=(maximum value−conversion rate)/(maximum value−minimum value)*100%
IC50 values were fitted with XLFit excel add-in version 5.4.0.8.

THP-1 cells = assay: LPS-stimulated cytokine (TNFα) release in THP-1; assay type: cell-based, Human; details: LPS 100 ng/mL, 5 hours, TNF-α ELISA, read-out: Inhibition IC50 (nM) of cytokines (TNFα) against LPS-stimulated inflammatory responses in THP-1 cells
Method: THP-1 cells were cultured in suspension in RPMI 1640 complete medium (containing 10% serum, 1% penicillin-streptomycin, and 55 μM β-mercaptoethanol). THP-1 cells were collected, centrifuged at 350×g at room temperature to discard the supernatant, and resuspended in RPMI 1640 complete medium to a concentration of 2×10^6 cells per mL. THP-1 cells were spread into a 96-well plate at a concentration of 2×10^5 cells per well, and different concentrations of the compound to be tested were added thereto. The plate was incubated in a 37° C. cell culture incubator with 5% CO2 for 60 minutes. 50 μL of LPS at a final concentration of 100 ng/mL was added to a 96-well plate, and incubated in a 37° C. cell culture incubator for 5 hours. The cell culture plate was then taken out from the incubator, and centrifuged at 350×g at low temperature for 5 minutes to collect 150 μL of the supernatant. Referring to the instructions in the Human TNF-α Duoset ELISA Kit, the level of TNF-α in the cell culture supernatant was detected.
Data on the inhibitory activity of cytokines (TNFα) against LPS-stimulated inflammatory responses in THP-1 cells are shown in Tables 3 and 4.

[1] = biological target: T2, IRAK4 protein in THP-1 cells (Homo sapiens, UniProt Q9NWZ3); assay: IRAK4 protein degradation in THP-1 induced by PROTAC (Western Blot); assay type: cell-based; details: GAPDH internal reference
T2 construct: endogenous in cells; host or cells: THP-1
T2 sequence (Q9NWZ3 1-460): T1 sequence (Q9NWZ3 1-460)
Method: 3.1. Based on the experimental method of immunoblot, i.e., Western Blot, THP-1 cell samples processed by gel electrophoresis were stained with specific antibodies, and the degradation activity of the compounds on the IRAK4 protein in THP-1 cells was determined by analyzing the position of the staining and the depth of the staining. The detection concentrations of the compounds were 0 μM, 0.3 μM, 1 μM, and 3 μM, and the compounds were used to treat the cells for 8 hours, 16 hours, 24 hours, and 48 hours. In this case, glyceraldehyde-3-phosphate dehydrogenase (GAPDH) was the internal reference protein for the assay.
THP-1 cells were spread into a 6-well plate at a density of 1.5×10^6 cells per mL, and incubated in a 37° C. cell culture incubator with 5% CO2 for 2 hours. The compound was diluted with DMSO to 0.6 mM, 0.2 mM, and 0.06 mM, respectively. 10 μL of compound solution was added to the corresponding wells, and the plate was incubated in the incubator for 16 hours, 24 hours, and 48 hours, respectively. The drug-treated THP-1 cells were collected from the wells, added with 120 μL of RIPA lysis buffer containing protease inhibitor, phosphatase inhibitor cocktail 2, and phosphatase inhibitor cocktail 3, and lysed on wet ice for 30 minutes. The cell lysate was then centrifuged at low temperature and high speed for 5 minutes, and the supernatant was collected. Referring to the instructions in the Pierce™ BCA Protein Assay Kit, the cell samples were tested for protein concentration.
The samples were adjusted to the same concentration using lysis buffer and NuPAGE® LDS sample buffer containing 1 M DTT. The samples were heated at 95° C. for 5 minutes and centrifuged at low temperature and high speed. 20 μL of prepared protein sample and 4 μL of PageRuler Prestained Protein Ladder were added to the gel wells. The mixture was electrophoresed at a voltage of 80 V for 0.5 hours, and then electrophoresed for another 1.5 hours after the voltage was adjusted to 120 V. The gel was removed and proteins in the gel were transferred to IBlot™ 2 Transfer Stack at a voltage of 20V. After successful membrane transfer, the bands were cut out at 65 kDa to 40 kDa and 40 kDa to 30 kDa, respectively. The membrane was blocked with 5% non-fat milk at room temperature for 1 hour. The membrane was washed three times with 1×TBST, and incubated with IRAK4 antibody working solution at 4° C. overnight. The IRAK4 antibody working solution was discarded, and the membrane was washed three times with 1×TBST. After the corresponding membrane was incubated with Goat Anti-Rabbit IgG H&L (HRP) working solution and Goat Anti-Mouse IgG H&L (HRP) working solution at room temperature for 1 hour, the antibody working solutions were discarded, and the membrane was washed three times with 1×TBST. Referring to the instructions in the SuperSignal™ West Femto Maximum Sensitivity Substrate Kit, the reagents in the kit were mixed in equal volume proportions to prepare a luminescent mixture, and the membrane was incubated for 1 minute and removed for exposure.
WB assay: The results 24 hours after administration at 1 μM were divided into estimated <25%, <50%, <75%, and <100%.

| SMILES | IC50 (IRAK4 kinase; Table 1) [µM] | IC50 (IRAK4 kinase; Table 2) [µM] | IC50 (THP-1 cells; Homo sapiens, THP-1, Table 3) [nM] | IC50 (THP-1 cells; Table 4) [nM] | Western Blot results 24 hours after administration at a drug concentration of 1 μM ([1]; Table 5, estimated bins) [%] | Western Blot results 24 hours after administration at a drug concentration of 1 μM ([1]; Table 6, estimated bins) [%] | IC50 (THP-1 cells; Homo sapiens, THP-1, Table 4) [nM] |
| --- | --- | --- | --- | --- | --- | --- | --- |
| Cc1ncsc1-c1ccc([C@H](C)NC(=O)[C@@H]2C[C@@H](O)CN2C(=O)[C@@H](NC(=O)C2CC3(CCN(C(=O)CN4CCN(CCn5cc6cc(NC(=O)c7cccc(C(F)(F)F)n7)c(C(C)(C)O)cc6n5)C4=O)CC3)C2)C(C)(C)C)cc1 [III-16] | 0.1 to 1 | 0.1 to 1 | 1000 to 10000 | 1000 to 10000 | <50 |  |  |
| Cc1ncsc1-c1ccc([C@H](C)NC(=O)[C@@H]2C[C@@H](O)CN2C(=O)[C@@H](NC(=O)C2CCC3(CC2)CCN(C(=O)CN2CCN(CCn4cc5cc(NC(=O)c6cccc(C(F)(F)F)n6)c(C(C)(C)O)cc5n4)C2=O)CC3)C(C)(C)C)cc1 [III-17] | 0.1 to 1 | 0.1 to 1 | 1000 to 10000 | 1000 to 10000 | <25 | <25 |  |
| CC(C)(O)c1cc2nn(CCN3CCN(CC(=O)N4CCC5(CC4)CN(c4cccc6c4C(=O)N(C4CCC(=O)NC4=O)C6=O)C5)C3=O)cc2cc1NC(=O)c1cccc(C(F)(F)F)n1 (stereo not drawn) [III-5] | 0.1 to 1 | 0.1 to 1 |  |  |  | <25 | 1000 to 10000 |
